Measured values published in PubChem BioAssay AID1259411 (Chemical Carcinogenesis Research Information System (CCRIS), 2018).
Calls of active or inactive are those of the source. The rule behind the calls is not given here.

Tested on: rodent carcinogenicity bioassays, tumor incidence
Experiment: CCRIS carcinogenicity studies
How it was run: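 NCI-built, expert-reviewed records of carcinogenicity and related test outcomes (mutagenicity, tumor promotion/inhibition) compiled from published and report sources, historical span 1985-2011, not updated.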

## NC(=O)/C(=C\c1ccc([N+](=O)[O-])o1)c1ccco1
Species: HAMSTER, Strain/Sex: SYRIAN/MALE, Route: ORAL, Dose: 0.25% IN DIET, Tumor Site: Type of Lesion: FORESTOMACH: PAPILLOMA, SQUAMOUS CELL CARCINOMA, BILE DUCT: ADENOMA
  carcinogen call: active; positive
Species: MOUSE, Strain/Sex: CD-1/MALE,FEMALE, Route: ORAL, Dose: 0.4% IN DIET FOR 18 MO, Tumor Site: Type of Lesion: FORESTOMACH: PAPILLOMA, SQUAMOUS CELL CARCINOMA
  carcinogen call: active; positive
Species: MOUSE, Strain/Sex: DDY/MALE, Route: ORAL, Dose: 0.25% IN DIET FOR 308 DAYS, Tumor Site: Type of Lesion: FORESTOMACH: SQUAMOUS CELL CARCINOMA
  carcinogen call: active; positive
Species: MOUSE, Strain/Sex: ICR/MALE,FEMALE, Route: ORAL, Dose: 0.08, 0.4% IN DIET FOR 440 DAYS, Tumor Site: Type of Lesion: FORESTOMACH: PAPILLOMA, SQUAMOUS CELL CARCINOMA
  carcinogen call: active; positive
Species: RAT, Strain/Sex: WISTAR/FEMALE, Route: ORAL, Dose: 0.08, 0.4% IN DIET FOR 18 MO, Tumor Site: Type of Lesion: MAMMARY GLAND: ADENOCARCINOMA, FORESTOMACH: PAPILLOMA
  carcinogen call: active; positive
Species: RAT, Strain/Sex: WISTAR/MALE, Route: ORAL, Dose: 0.4% IN DIET FOR 18 MO, Tumor Site: Type of Lesion: FORESTOMACH: PAPILLOMA
  carcinogen call: active; positive

## C=C(C)[C@H]1Cc2c(ccc3c2O[C@@H]2COc4cc(OC)c(OC)cc4[C@@H]2C3=O)O1
Species: MOUSE, Strain/Sex: B6C3F1/FEMALE, Route: ORAL, Dose: 0, 600, 1200 PPM IN DIET FOR 103 WK (STUDY DURATION: 105 WK), Dose: 0, 600, 1200 PPM IN DIET FOR 103 WK (STUDY DURATION: 105 WK)
  carcinogen call: inactive; negative
Species: MOUSE, Strain/Sex: B6C3F1/MALE, Route: ORAL, Dose: 0, 600, 1200 PPM IN DIET FOR 103 WK (STUDY DURATION: 105 WK), Dose: 0, 600, 1200 PPM IN DIET FOR 103 WK (STUDY DURATION: 105 WK)
  carcinogen call: inactive; negative
Species: RAT, Strain/Sex: F344/FEMALE, Route: ORAL, Dose: 0, 38, 75 PPM IN DIET FOR 103 WK (STUDY DURATION: 105 WK), Dose: 0, 38, 75 PPM IN DIET FOR 103 WK (STUDY DURATION: 105 WK)
  carcinogen call: inactive; negative
Species: RAT, Strain/Sex: F344/MALE, Route: ORAL, Dose: 0, 38, 75 PPM IN DIET FOR 103 WK (STUDY DURATION: 105 WK), Dose: 0, 38, 75 PPM IN DIET FOR 103 WK (STUDY DURATION: 105 WK), Tumor Site: Type of Lesion: PARATHYROID GLAND: ADENOMA
  carcinogen call: equivocal
Species: RAT, Strain/Sex: WISTAR/FEMALE, Route: INTRAPERITONEAL, Dose: 0, 1, 2 MG/KG IN SUNFLOWER OIL 5 D/WK FOR 8 WK (STUDY DURATION: 18 MO), Dose: 0, 1, 2 MG/KG IN SUNFLOWER OIL 5 D/WK FOR 8 WK (STUDY DURATION: 18 MO)
  carcinogen call: inactive; negative
Species: RAT, Strain/Sex: WISTAR/FEMALE, Route: INTRAPERITONEAL, Dose: 0, 1, 2 MG/KG IN SUNFLOWER OIL/CHLOROFORM (9:1) 5 D/WK FOR 8 WK (STUDY DURATION: 18 MO), Dose: 0, 1, 2 MG/KG IN SUNFLOWER OIL/CHLOROFORM (9:1) 5 D/WK FOR 8 WK (STUDY DURATION: 18 MO)
  carcinogen call: inactive; negative

## O=C1C=CC(=O)C(c2ccccc2)=C1
Species: MOUSE, Strain/Sex: CD-1/FEMALE, Route: DERMAL, Dose: 0, 1 MG IN DMSO 5/D WK FOR 40 WK (STUDY DURATION: 40 WK)
  carcinogen call: inactive; negative
Species: RAT, Strain/Sex: F344/FEMALE, Route: INTRAVESICULAR, Dose: 0, 1% IN 0.2 ML SALINE 2/WK FOR 5 WK (STUDY DURATION: 36 WK)
  carcinogen call: inactive; negative

## ClC1=C(Cl)[C@]2(Cl)C3C(Cl)C(Cl)CC3[C@@]1(Cl)C2(Cl)Cl (stereo partly drawn)
Species: MOUSE, Strain/Sex: B6C3F1/FEMALE, Route: ORAL, Dose: 0, 30.1, 63.8 PPM IN DIET, TWA, Dose: 0, 30.1, 63.8 PPM IN DIET, TWA, Tumor Site: Type of Lesion: LIVER: HEPATOCELLULAR CARCINOMA
  carcinogen call: active; positive
Species: MOUSE, Strain/Sex: B6C3F1/MALE, Route: ORAL, Dose: 0, 29.9, 56.2 PPM IN DIET, TWA, Dose: 0, 29.9, 56.2 PPM IN DIET, TWA, Tumor Site: Type of Lesion: LIVER: HEPATOCELLULAR CARCINOMA
  carcinogen call: active; positive
Species: MOUSE, Strain/Sex: B6C3F1/MALE, Route: ORAL, Dose: 0, 55 PPM IN DIET BEGINNING AT 63 D OF AGE, AT 8 MO OF AGE DOSE INCREASED TO 60 PPM AND CONTINUED UNTIL 491 D OF AGE (ST, Tumor Site: Type of Lesion: LIVER: HEPATOCELLULAR ADENOMA, HEPATOCELLULAR CARCINOMA
  carcinogen call: active; positive
Species: MOUSE, Strain/Sex: B6C3F1/MALE, Route: ORAL, Dose: 0, 55 PPM IN DIET BEGINNING AT 63 D OF AGE, AT 8 MO OF AGE DOSE WAS INCREASED TO 60 PPM FOR DURATION OF STUDY (STUDY DUR, Tumor Site: Type of Lesion: LIVER: HEPATOCELLULAR ADENOMA, HEPATOCELLULAR CARCINOMA
  carcinogen call: active; positive
Species: MOUSE, Strain/Sex: B6D2F1/MALE, Route: ORAL, Dose: 0, 55 PPM IN DIET BEGINNING AT 63 D OF AGE, AT 8 MO OF AGE DOSE INCREASED TO 60 PPM AND CONTINUED UNTIL 491 D OF AGE (ST, Tumor Site: Type of Lesion: LIVER: HEPATOCELLULAR ADENOMA, HEPATOCELLULAR CARCINOMA
  carcinogen call: active; positive
Species: MOUSE, Strain/Sex: B6D2F1/MALE, Route: ORAL, Dose: 0, 55 PPM IN DIET BEGINNING AT 63 D OF AGE, AT 8 MO OF AGE DOSE WAS INCREASED TO 60 PPM FOR DURATION OF STUDY (STUDY DUR, Tumor Site: Type of Lesion: LIVER: HEPATOCELLULAR ADENOMA, HEPATOCELLULAR CARCINOMA
  carcinogen call: active; positive
Species: MOUSE, Strain/Sex: CD-1/MALE,FEMALE, Route: DIET, Dose: 0, 5, 25, 50 MG/KG FOR 18 MO, Tumor Site: Type of Lesion: LIVER: HEPATOCELLULAR CARCINOMA
  carcinogen call: active; positive
Species: RAT, Strain/Sex: OSBORNE-MENDEL/FEMALE, Route: ORAL, Dose: 0, 120.8, 241.5PPM IN DIET, TWA, Dose: 0, 120.8, 241.5PPM IN DIET, TWA
  carcinogen call: inactive; negative
Species: RAT, Strain/Sex: OSBORNE-MENDEL/MALE, Route: ORAL, Dose: 0, 203.5, 407.0PPM IN DIET, TWA, Dose: 0, 203.5, 407.0PPM IN DIET, TWA
  carcinogen call: inactive; negative

## CC(=O)N(O[C@@H]1O[C@H](C(=O)O)[C@@H](O)[C@H](O)[C@H]1O)c1ccc2c(c1)Cc1ccccc1-2
Species: RAT, Strain/Sex: F344/MALE, Route: INJECTION, Dose: 0, 1 UMOL IN 0.5 ML OF SOLUTION CONTAINING 0.4 ML PHOSPHATE BUFFERED SALINE/ GENTAMYCIN (PH 7) AND 0.1 ML DMSO INJECTED
  carcinogen call: inactive; negative
Species: RAT, Strain/Sex: F344/MALE, Route: INJECTION, Dose: 0, 1 UMOL IN 0.5 ML OF SOLUTION CONTAINING 0.4 ML PHOSPHATE BUFFERED SALINE/ GENTAMYCIN (PH 8) AND 0.1 ML DMSO INJECTED
  carcinogen call: inactive; negative

## CN1CCN(N=O)CC1
Species: RAT, Strain/Sex: SPRAGUE-DAWLEY/FEMALE, Route: INHALATION, Dose: 0, 2.4 PPM 14.5 HR/D FOR 74 D OVER 7.5 MONTHS (STUDY DURATION: 350 D), Tumor Site: Type of Lesion: NASAL CAVITY: TUMOR
  carcinogen call: active; positive

## O=C(O)c1cc2ccccc2c(N=Nc2ccc3ccccc3c2S(=O)(=O)O)c1O
Species: MOUSE, Strain/Sex: SWISS-WEBSTER/FEMALE, Route: DERMAL, Dose: 0, 1% IN 0.1 ML 0.1% SODIUM LAURYL SULFATE 1/WK FOR 18 MO (STUDY DURATION: 18 MO)
  carcinogen call: inactive; negative
Species: MOUSE, Strain/Sex: SWISS-WEBSTER/MALE, Route: DERMAL, Dose: 0, 1% IN 0.1 ML 0.1% SODIUM LAURYL SULFATE 1/WK FOR 18 MO (STUDY DURATION: 18 MO)
  carcinogen call: inactive; negative
